Our source for the IC50 and Kd values is patent publication US20220324835A1 (Nurix Therapeutics, Inc., priority 2018, published 2022).

Assay [1] has as its target T1, Cbl-b (Homo sapiens, UniProt Q13191). Briefly: Cbl-b activity assay (Cbl-b inhibition assay), TR-FRET of Cbl-b interaction with UbcH5B-Ub. The format is biochemical. An outline of the steps: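 UbcH5B (C85K) conjugated to N-terminally Bodipy-Fluorescein-labeled ubiquitin served as the fluorescent partner. After compound preincubation, Src kinase (60 nM) with 1 mM ATP and 5 mM MgCl2 (final) was added for 1.5 h, followed by a further 1 h incubation. Some values were obtained with 50 mM NaCl and 30 nM Src.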

The target in another assay is Cbl-b (residues 36-427) (Homo sapiens, UniProt Q13191). Briefly: Cbl-b binding assay (SPR, Biacore T200). The note with it: 20° C., 1:1 binding model. On the procedure: SPR data was collected on a Biacore T200 (GE Healthcare) using a NeutrAvidin (Invitrogen) capture surface that was generated on a polycarboxylate hydrogel sensor chip of medium charge density (XanTec Bioanalytics GmbH) at 20° C. The surface was prepared using 20 mM HEPES, pH 7.5, 100 mM NaCl, 0.5 mM TCEP, 0.01% Triton X-100 as the immobilization buffer. Neutravidin was coupled to the sensor chip through EDC/NHS amine coupling. All steps were performed using a flow rate of 10 μl/min. First, the chip was preconditioned with a 3-min injection of 1 M NaCl, 0.1 M Borate followed by a 10-min equilibration in immobilization buffer. The surface was activated by a 5-min injection of 100 mM EDC/50 mM NHS. Next, 250 μg/mL NeutrAvidin buffered in 10 mM sodium acetate buffer, pH 5.0 was injected over the surface for 2 min. The surface was deactivated with 1 M Tris, pH 8.5 for 7 min then re-equilibrated in immobilization buffer for 7 min. […] Flow cell 1 served as a reference surface and was prepared without protein. All binding measurements were made in 20 mM HEPES, pH 7.5, 100 mM NaCl, 0.5 mM TCEP, 0.01% Triton X-100, 2% DMSO (referred as assay buffer) at 20° C. Compounds, prepared in assay buffer, were diluted from atop concentration of either 100 μM or 50 μM using either a 2- or 3-fold dilution scheme containing 8 or 10 points. Samples were injected for 50 s at 50 μl/min. Dissociation time varied from 90-180 s, depending on anticipated potency. The surface was regenerated by injection of 0.3 M NaCl, prepared in assay buffer for 20 s at 10 μl/min. Positive and negative control samples were run between each compound to monitor surface integrity.
Chain of Cbl-b (residues 36-427) (Q13191 36-427): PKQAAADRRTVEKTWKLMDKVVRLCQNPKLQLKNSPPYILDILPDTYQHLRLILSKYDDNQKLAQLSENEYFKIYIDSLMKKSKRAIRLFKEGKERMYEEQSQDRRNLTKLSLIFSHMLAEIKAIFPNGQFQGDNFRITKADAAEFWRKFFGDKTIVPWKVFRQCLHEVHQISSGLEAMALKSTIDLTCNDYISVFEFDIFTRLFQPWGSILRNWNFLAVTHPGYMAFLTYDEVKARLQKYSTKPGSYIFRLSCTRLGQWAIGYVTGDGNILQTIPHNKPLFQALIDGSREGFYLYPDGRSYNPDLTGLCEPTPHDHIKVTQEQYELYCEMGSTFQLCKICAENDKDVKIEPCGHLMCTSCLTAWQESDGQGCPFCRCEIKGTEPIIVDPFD
Column marked with an asterisk (*) were tested as described above with assay buffer containing 50 mM NaCl instead of 100 mM NaCl and 30 nM Src kinase instead of 60 nM Src kinase. The resulting data for the Cbl-b binding assay was solvent corrected and double referenced prior to analysis. All data were globally fit to a steady-state affinity and kinetic binding model where applicable). Fit parameters were derived from a 1:1 binding model using the Biacore T200 Evaluation Software V2.0 (GE Healthcare) (Table 2).

For assay [2], the target named is T1, Cbl-b. Briefly: Cbl-b inhibition assay (Cbl-b activity assay, FRET, Biological Example 1; 100 mM NaCl, 60 nM Src kinase). The format is biochemical. The settings on record: upper bound stated in text lists; read-out: IC50 values in the Cbl-b inhibition assay of Biological Example 1. In outline:
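Inhibitor activity is measured as reduced terbium-to-fluorescein FRET between streptavidin-terbium on biotinylated Cbl-b and Bodipy-fluorescein ubiquitin carried by an irreversible UbcH5B-Ub conjugate, binding of which depends on Src phosphorylation of Cbl-b.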

Where [3] appears, read: assay buffer with 100 mM NaCl, 60 nM Src kinase, read-out: Cbl-b activity IC50.
Where [4] appears, read: * assay buffer containing 50 mM NaCl instead of 100 mM NaCl and 30 nM Src kinase instead of 60 nM, read-out: Cbl-b activity IC50 (μM)*.

A value given as a limit tells only on which side of the number the result lay.

T1 sequence (Q13191 36-427): as above

`C[C@H](Sc1nncn1C)c1cccc(NC(=O)c2nc(C(F)(F)F)cs2)c1` [Compound 74, N-[3-[(1 S)-1-[(4-methyl-1,2,4-triazol-3-yl)sulfanyl]ethyl]phenyl]-4-(trifluoromethyl)thiazole-2-carboxamide]: the IC50 was 0.301 to 1 µM at Cbl-b [1] (setting [3]) and at most 1 µM on Cbl-b [2]. The Kd on Cbl-b (residues 36-427) was 1 to 3 µM.
On the same counts, the results for `C[C@H](Sc1nncn1C)c1cccc(NC(=O)c2cccc(OC(F)(F)F)c2)c1` [Compound 79, (S)-N-(3-(1-((4-methyl-4H-1,2,4-triazol-3-yl)thio)ethyl)phenyl)-3-(trifluoromethoxy)benzamide] are 3 to 10 µM, at most 10 µM and 3 to 10 µM.
Regarding `Cc1cncc(C(=O)Nc2cccc([C@H](C)Sc3nncn3C)c2)n1` [Compound 82, (S)-6-methyl-N-(3-(1-((4-methyl-4H-1,2,4-triazol-3-yl)thio)ethyl)phenyl)pyrazine-2-carboxamide], the values for the IC50 on Cbl-b [1] (setting [3]) and at Cbl-b [2] were 1 to 3 µM and at most 10 µM, respectively. Also, the Kd on Cbl-b (residues 36-427) lay in the range of 3 to 10 µM.
With `C[C@H](Sc1nncn1C)c1cccc(NC(=O)c2cc(C(F)(F)F)c3ccccc3n2)c1` [Compound 83, (S)-N-(3-(1-((4-methyl-4H-1,2,4-triazol-3-yl)thio)ethyl)phenyl)-4-(trifluoromethyl)quinoline-2-carboxamide], the IC50 was 1 to 3 µM on Cbl-b [1] (setting [3]) and at most 10 µM on Cbl-b [2]. At Cbl-b (residues 36-427), the Kd is 3 to 10 µM.
`C[C@H](Sc1nncn1C)c1cccc(NC(=O)c2cc(NS(=O)(=O)CCO)ccn2)c1` [Compound 86, 4-(2-hydroxyethylsulfonylamino)-N-[3-[(1S)-1-[(4-methyl-1,2,4-triazol-3-yl)sulfanyl]ethyl]phenyl]pyridine-2-carboxamide]: the IC50 was 3 to 10 µM at Cbl-b [1] (setting [3]) and at most 10 µM on Cbl-b [2]. Also, at Cbl-b (residues 36-427), the Kd was over 10 µM.
Consider `C[C@H](Sc1nncn1C)c1cccc(NC(=O)c2cccc(CF)n2)c1` [Compound 87, 6-(fluoromethyl)-N-[3-[(1S)-1-[(4-methyl-1,2,4-triazol-3-yl)sulfanyl]ethyl]phenyl]pyridine-2-carboxamide], for which the IC50 at Cbl-b [1] (setting [3]) was 1 to 3 µM; on Cbl-b [2], at most 10 µM. For the same molecule, the Kd at Cbl-b (residues 36-427) was in the range of 1 to 3 µM.
For `C[C@H](Sc1nncn1C)c1cccc(NC(=O)c2cccc3scnc23)c1` [Compound 88, N-[3-[(1 S)-1-[(4-methyl-1,2,4-triazol-3-yl)sulfanyl]ethyl]phenyl]-1,3-benzothiazole-4-carboxamide], the figures for the IC50 at Cbl-b [1] (setting [3]) and at Cbl-b [2] were 1 to 3 µM and at most 10 µM, respectively. At Cbl-b (residues 36-427), this molecule gave a Kd of 3 to 10 µM.
In the case of `CCOc1cccc(C(=O)Nc2cccc([C@H](C)Sc3nncn3C)c2)n1` [Compound 90, 6-Ethoxy-N-[3-[(1S)-1-[(4-methyl-1,2,4-triazol-3-yl)sulfanyl]ethyl]phenyl]pyridine-2-carboxamide], the IC50 is 1 to 3 µM on Cbl-b [1] (setting [3]) and at most 10 µM at Cbl-b [2]. Moreover, the Kd at Cbl-b (residues 36-427) fell in the range of 3 to 10 µM.
For the molecule `CC(Sc1nncn1C)c1ccc(F)c(NC(=O)c2cccc(C(F)(F)F)n2)c1` (stereo not shown) [Compound 95, N-(2-fluoro-5-(1-((4-methyl-4H-1,2,4-triazol-3-yl)thio)ethyl)phenyl)-6-(trifluoromethyl)picolinamide], the IC50 at Cbl-b [1] (setting [3]) was 1 to 3 µM; on Cbl-b [2] it was at most 10 µM. At Cbl-b (residues 36-427), the Kd was 1 to 3 µM.
In the case of `C[C@@H](Sc1nncn1C)c1ccc(F)c(NC(=O)c2cccc(C(F)(F)F)n2)c1` [Compound 95b, (R)-N-(2-fluoro-5-(1-((4-methyl-4H-1,2,4-triazol-3-yl)thio)ethyl)phenyl)-6-(trifluoromethyl)picolinamide], the figures for the IC50 on Cbl-b [1] (setting [3]) and on Cbl-b [2] were 3 to 10 µM and at most 10 µM, respectively. On Cbl-b (residues 36-427), the Kd is over 10 µM.
On the same counts, the results for `C[C@H](Sc1nncn1C)c1ccc(F)c(NC(=O)c2ccc3ccccc3n2)c1` [Compound 96a, (S)-N-(2-fluoro-5-(1-((4-methyl-4H-1,2,4-triazol-3-yl)thio)ethyl)phenyl)quinoline-2-carboxamide] are 1 to 3 µM, at most 10 µM and 1 to 3 µM.
Take `COc1ccc(C(C)Sc2nncn2C)cc1NC(=O)c1ccc2ccccc2n1` (stereo not shown) [Compound 97, N-(2-methoxy-5-(1-((4-methyl-4H-1,2,4-triazol-3-yl)thio)ethyl)phenyl)quinoline-2-carboxamide]: the IC50 at Cbl-b [1] (setting [4]) is 1 to 3 µM; at Cbl-b [1] (setting [3]) it was 1 to 3 µM; at Cbl-b [2] it was at most 10 µM. On Cbl-b (residues 36-427), the equilibrium dissociation constant (Kd) fell in the range of 3 to 10 µM.
Regarding `C[C@H](Sc1nncn1C1CC1)c1cccc(NC(=O)c2cc3ccccc3cn2)c1` [Compound 99, (S)-N-(3-(1-((4-cyclopropyl-4H-1,2,4-triazol-3-yl)thio)ethyl)phenyl)isoquinoline-3-carboxamide], the results for the IC50 on Cbl-b [1] (setting [4]), on Cbl-b [1] (setting [3]) and on Cbl-b [2] were 3 to 10 µM, 0.301 to 1 µM and at most 1 µM, respectively. At Cbl-b (residues 36-427), this molecule gave a Kd of 3 to 10 µM.
On to `C[C@H](Sc1nncn1C)c1ccnc(NC(=O)c2cccc(C(F)(F)F)n2)c1` [Compound 102b, (S)-N-(4-(1-((4-methyl-4H-1,2,4-triazol-3-yl)thio)ethyl)pyridin-2-yl)-6-(trifluoromethyl)picolinamide], for which the IC50 at Cbl-b [1] (setting [4]) was 1 to 3 µM; on Cbl-b [1] (setting [3]), 1 to 3 µM; on Cbl-b [2], at most 10 µM. This molecule registered a dissociation constant Kd at Cbl-b (residues 36-427) of 1 to 3 µM.
Consider `C[C@H](Sc1nncn1C)c1ccnc(NC(=O)c2ccc3cccc(F)c3n2)c1` [Compound 107, (S)-8-fluoro-N-(4-(1-((4-methyl-4H-1,2,4-triazol-3-yl)thio)ethyl)pyridin-2-yl)quinoline-2-carboxamide], for which the IC50 at Cbl-b [1] (setting [3]) is 1 to 3 µM; at Cbl-b [2] it was at most 10 µM. The same molecule gave a Kd on Cbl-b (residues 36-427) of 3 to 10 µM.
As for `C[C@H](Sc1nncn1C)c1ccnc(NC(=O)c2ccc3c(n2)CCCC3)c1` [Compound 108, (S)-N-(4-(1-((4-methyl-4H-1,2,4-triazol-3-yl)thio)ethyl)pyridin-2-yl)-5,6,7,8-tetrahydroquinoline-2-carboxamide], the IC50 on Cbl-b [1] (setting [3]) was 1 to 3 µM; on Cbl-b [2] it was at most 10 µM. This molecule also came in with a Kd on Cbl-b (residues 36-427) of 3 to 10 µM.
As for `C[C@H](Sc1nncn1C)c1ccnc(NC(=O)c2cc3c(cn2)CCCC3)c1` [Compound 109, (S)-N-(4-(1-((4-methyl-4H-1,2,4-triazol-3-yl)thio)ethyl)pyridin-2-yl)-5,6,7,8-tetrahydroisoquinoline-3-carboxamide], the figures for the concentration for half-maximal inhibition (IC50) at Cbl-b [1] (setting [3]) and on Cbl-b [2] were 3 to 10 µM and at most 10 µM, respectively. The same molecule returned a Kd at Cbl-b (residues 36-427) of 3 to 10 µM.
On to `C[C@H](Sc1nncn1C)c1ccnc(NC(=O)c2cccc(C(C)(F)F)n2)c1` [Compound 110, (S)-6-(1,1-difluoroethyl)-V-(4-(1-((4-methyl-4H-1,2,4-triazol-3-yl)thio)ethyl)pyridin-2-yl)picolinamide], for which the half-inhibitory concentration (IC50) is 0.301 to 1 µM at Cbl-b [1] (setting [3]) and at most 1 µM at Cbl-b [2]. The Kd at Cbl-b (residues 36-427) lay within 3 to 10 µM.
Take `C[C@H](Sc1nncn1C)c1ccnc(NC(=O)c2cc(C(F)(F)F)c3ccccc3n2)c1` [Compound 111, (S)-N-(4-(1-((4-methyl-4H-1,2,4-triazol-3-yl)thio)ethyl)pyridin-2-yl)-4-(trifluoromethyl)quinoline-2-carboxamide]: the concentration for half-maximal inhibition (IC50) at Cbl-b [1] (setting [3]) is 3 to 10 µM; at Cbl-b [2] it was at most 10 µM. On Cbl-b (residues 36-427), this molecule registered a Kd of 3 to 10 µM.
`C[C@H](Sc1nncn1C)c1ccnc(NC(=O)c2ccc3ccccc3n2)c1` [Compound 112, (S)-N-(4-(1-((4-methyl-4H-1,2,4-triazol-3-yl)thio)ethyl)pyridin-2-yl)quinoline-2-carboxamide]: the IC50 at Cbl-b [1] (setting [4]) was 1 to 3 µM; on Cbl-b [1] (setting [3]) it was 0.301 to 1 µM; at Cbl-b [2], at most 1 µM. The equilibrium dissociation constant (Kd) on Cbl-b (residues 36-427) fell in the range of 3 to 10 µM.
